These results are taken from patent US20230035578A1, “CONTROLLED RELEASE OF COMPOUNDS” (TECHNISCHE UNIVERSITAET MUENCHEN, priority 2019, published 2023).

The data set can be described thus: Drug release from surface-bound mucin layer on PDMS (UV absorbance). The data set is classed as physicochemical. The protocol:
The coupling reaction was performed as described previously^9. Briefly, PDMS was treated with O2 plasma at 0.4 mbar pressure and an intensity of 30 W for 90 s. The plasma treatment replaces the […] groups on the polymer surface with hydroxyl groups, which enables a covalent attachment of silane molecules. The silane was used as a coupling agent to further allow for attaching porcine gastric mucin to the surface via carbodiimide coupling. Thus, we here used N-[3-Trimethoxysilyl)propyl]ethylenediamine triacetic acid trisodium salt (TMS-EDTA, abcr, Karlsruhe, Germany), which carries three carboxy groups on the other end. TMS-EDTA was diluted to a final concentration of 0.1% (w/v) in 10 mM Acetate buffer (pH=4.5). The activated PDMS samples were then incubated in the silane solution for 5 h at 60° C. Afterwards, the samples were washed in 80% ethanol (Carl Roth) for 1 h to remove unbound residues before they were placed in the oven at 60° C. for another 60 min to stabilize the bond between the PDMS and the silane.
In the next step, the carboxyl groups of the silane were activated. Therefore, the surface was covered with 100 mM MES buffer (pH=5.0) containing 5 mM 1-Ethyl-3-(3-dimethylaminopropyl)-carbodiimid-hydrochloride (EDC, Carl Roth) and 5 mM N-Hydroxysulfosuccinimide (sulfo-NHS, abcr) at RT for 30 min. Afterwards, the EDC-NHS solution was replaced by phosphate-buffered saline (pH=7.4, Lonza, Velviers, Belgium) containing 0.1% (w/v) of purified mucin and stored at 4° C. overnight. Amine groups from the mucin protein core then react with the EDC activated groups of the silane and form a stable covalent bond.
PDMS was allowed to crosslink at 60° C. overnight. Afterwards, this PDMS layer was coated with mucin as described in Section 1.2.
The mucin layer was loaded with the drug by incubating it in a drug-containing solution (TCL or VAC, 0.5 mg/mL) at 4° C. overnight. […] […] Before starting the release experiment, excessive glycerol, drug, and salt were removed and replaced by 2 mL of ultrapure water.
The […], and the release of TCL was tracked spectroscopically with a specord210 spectral photometer (Analytikjena, Jena, Germany) at 360 nm. The amount of released drug was determined by a standard curve which was generated by measuring serial dilutions of a drug solution (see FIG. 1). The release of VAN was also tracked spectroscopically, however, at 282 nm (for calibration curve, see FIG. 2).

Counter-ions that a name gives are not always drawn.

On to `CN[C@H](CC(C)C)C(=O)N[C@H]1C(=O)N[C@@H](CC(N)=O)C(=O)N[C@H]2C(=O)N[C@H]3C(=O)N[C@H](C(=O)N[C@H](C(=O)O)c4cc(O)cc(O)c4-c4cc3ccc4O)[C@H](O)c3ccc(c(Cl)c3)Oc3cc2cc(c3O[C@@H]2O[C@H](CO)[C@@H](O)[C@H](O)[C@H]2O[C@H]2C[C@](C)(N)[C@H](O)[C@H](C)O2)Oc2ccc(cc2Cl)[C@H]1O` [Vancomycin, Vancomycin hydrochloride], for which the “CTCL, vancomycin release” value is, setting by setting: (Group 1: glycerol, Mg^2+, trigger 150 mM NaCl, time 0 h) 0.0014 ± 0.0010 mg/mL; (Group 1: glycerol, Mg^2+, trigger 150 mM NaCl, time 0.5 h) 0.0051 ± 0.0029 mg/mL; (Group 1: glycerol, Mg^2+, trigger 150 mM NaCl, time 1.0 h) 0.0083 ± 0.0042 mg/mL; (Group 1: glycerol, Mg^2+, trigger 150 mM NaCl, time 2.0 h) 0.0098 ± 0.0031 mg/mL; (Group 1: glycerol, Mg^2+, trigger 150 mM NaCl, time 3.0 h) 0.0097 ± 0.0029 mg/mL; (Group 2: glycerol, Mg^2+, water, time 0 h) 0.0008 ± 0.0008 mg/mL. Also, the “CTCL, vancomycin release” value reads like this: (Group 2: glycerol, Mg^2+, water, time 0.5 h) 0.0008 ± 0.0011 mg/mL; (Group 2: glycerol, Mg^2+, water, time 1.0 h) 0.0022 ± 0.0007 mg/mL; (Group 2: glycerol, Mg^2+, water, time 2.0 h) 0.0007 ± 0.0009 mg/mL; (Group 2: glycerol, Mg^2+, water, time 3.0 h) 0.0012 ± 0.0006 mg/mL; (Group 3: no condensation, Mg^2+, trigger 150 mM NaCl, time 0 h) 0.0018 ± 0.0008 mg/mL; (Group 3: no condensation, Mg^2+, trigger 150 mM NaCl, time 0.5 h) 0.0024 ± 0.0010 mg/mL. Besides, the “CTCL, vancomycin release” value was found to be 0.0034 ± 0.0009 mg/mL (Group 3: no condensation, Mg^2+, trigger 150 mM NaCl, time 1.0 h); 0.0034 ± 0.0003 mg/mL (Group 3: no condensation, Mg^2+, trigger 150 mM NaCl, time 2.0 h); 0.0034 ± 0.0003 mg/mL (Group 3: no condensation, Mg^2+, trigger 150 mM NaCl, time 3.0 h); 0.0033 ± 0.0022 mg/mL (Group 4: no condensation, no stabilization, trigger 150 mM NaCl, time 0 h); 0.0034 ± 0.0014 mg/mL (Group 4: no condensation, no stabilization, trigger 150 mM NaCl, time 0.5 h); 0.0022 ± 0.0005 mg/mL (Group 4: no condensation, no stabilization, trigger 150 mM NaCl, time 1.0 h). Moreover, the “CTCL, vancomycin release” value (Group 4: no condensation, no stabilization, trigger 150 mM NaCl, time 2.0 h) is reported as 0.0011 ± 0.0010 mg/mL and the “CTCL, vancomycin release” value (Group 4: no condensation, no stabilization, trigger 150 mM NaCl, time 3.0 h) worked out at 0.0013 ± 0.0011 mg/mL. Further, the “release after exposure to physiological trigger” value (Mg^2+, 150 mM NaCl) is “release was observed”. The “release where the trigger was absent” value (Mg^2+, no trigger) is reported as “almost no release was observed”.
